For series [1], the system named is MHC class II (IA-IE) in RENCA cells. The experiment in a line: in vitro induction of MHC class II (IA-IE) in RENCA cells (FACS). The series is classed as cell-based, murine. How it is done:
(§1) Cell Culture and Compound Treatment for MHC II Induction
(§2) Human and murine tumor cell lines were obtained from the Shanghai Institutes for Biological Sciences (SIBS) or American Type Culture Collection (ATCC) and maintained in a humidified 5% CO2 incubator at 37° C. All of the human cell lines were derived from human B cell lymphomas: OCI-Ly19, OCI-Ly7, OCI-Ly18, RL, SU-DHL6, and MD901. The murine tumor cell lines were of varied origin: CT-26 (colon carcinoma), RENCA (renal cell carcinoma), P388D1 (lymphoblast of monocytes and macrophages), MPC-11 (plasmacytoma, myeloma), L5178 (thymic lymphoma), and J588 (plasmacytoma, myeloma).
(§3) On Day 0, T25 flasks were seeded at the following cell densities:
(§4) On Day 1, cells were treated with I-1 compound diluted in DMSO/PBS (final concentration of DMSO in the media was 0.19%). The cells were treated with I-1 compound for 72 hours. The adherent cells were dissociated with 1 mL/T25 flask of Cell Dissociation buffer (GIBCO) at 37° C. Four mL of culture media was added to each flask, samples were aliquoted FACS analysis. […]
(§5) Cells were counted to determine cell number and viability with Vi-cell (Beckman). […]
(§6) Cells were incubated for 1 hour at 4° C., protected from light. […] Samples were analyzed immediately using FACS machine. The data were analyzed with BD Accuri C6 software and FlowJo_V10.

The subject of series [2] is P388D1 cells and RENCA cells. The experiment in a line: cytotoxicity, percent of viable cells. The series is classed as cell-based, murine. The following applies: various concentrations (FIG. 4).
Another series has as its target HDAC1 (Homo sapiens (Human), UniProt Q13547). The experiment in a line: non-trypsin coupled in-vitro HDAC enzymatic endpoint assay (Caliper LabChip EZ-Reader). The following applies: 3 hrs preincubation, Substrate A 2 μM. The series is classed as biochemical.
In a further series the target is HDAC2 (Homo sapiens (Human), UniProt Q92769). Described as above. As to conditions: 3 hrs preincubation, Substrate A 2 μM. The series is classed as biochemical.
A short description of the next series: plasma exposure (PK). As to conditions: FIG. 13. The series is classed as in vivo. As for the experimental part: 1) For pharmacokinetics (PK): 2 hrs after the first treatment, satellite time point (Day 11) and after the final time point (Day 14) 100 μl blood was collected from the I-1 treatment groups (3 mice/group), then centrifuged to get about 50 μl plasma for PK analysis.

Series [3] has as its system MHC Class II expression across multiple cell lines. The experiment in a line: FACS detection of MHC II on human and murine tumor cell lines. The series is classed as cell-based. The following applies: 72 hours treatment (FIG. 1). How it is done: as §1, §2, §3, §4, §5, §6
The next series deals with HDAC3 (Homo sapiens (Human), UniProt O15379). The experiment in a line: non-trypsin coupled in-vitro HDAC enzymatic endpoint assay (Caliper LabChip EZ-Reader). The series is classed as biochemical. The following applies: 3 hrs preincubation, Substrate A 2 μM.
Series [4] is described as follows: tolerability and exposure relative to NOAEL.
Series [5] deals with Twenty-six syngeneic cells lines. The experiment in a line: viability of syngeneic cell lines. The series is classed as cell-based. The following applies: 10 μM.
Series [6] has as its system MHC class II (IA-IE) in P388D1 cells. The experiment in a line: in vitro induction of MHC class II (IA-IE) in P388D1 cells (FACS). The series is classed as cell-based, murine. As for the experimental part:
as §1, §2, §3
On Day 1, cells were treated with I-1 compound diluted in DMSO/PBS (final concentration of DMSO in the media was 0.19%). The cells were treated with I-1 compound for 72 hours. The adherent cells were dissociated with 1 mL/T25 flask of Cell Dissociation buffer (GIBCO) at 37° C. Four mL of culture media was added to each flask, samples were aliquoted FACS analysis. For suspension cells, samples were aliquoted into 50 mL conical tubes for FACS analysis.
FACS Detection of MHC II on Human and Murine Cells (IA/IE on Murine Cells)
Cells were counted to determine cell number and viability with Vi-cell (Beckman). After washing once with 10 mL cold FACS staining buffer (PBS+0.2% BSA), liquid was aspirated and the cells were resuspended in enough cold FACS staining buffer to reach a final cell density of ˜1×10^7 viable cells/mL. 50 μL/well (˜500 k/well) of cells were added to a 96-well u-bottomed plate and the cells were stained as follows, according to manufacturer's instructions: • Sample 1: Unstained • Sample 2: stained with anti MHC II antibody (PE anti-human HLA-DR, Clone: G46-6, Becton Dickinson; PE anti-mouse I-A/I-E, Clone: M5/114.15.2, Becton Dickinson) • Sample 3: stained with isotype control
as §6

The pIC50 is the negative decadic logarithm of the IC50, by convention in mol/L. Read a high pIC50 as a low IC50.

pIC50: −log10 of the molar value.

HDAC3, sequence (O15379 whole entry, species assumed): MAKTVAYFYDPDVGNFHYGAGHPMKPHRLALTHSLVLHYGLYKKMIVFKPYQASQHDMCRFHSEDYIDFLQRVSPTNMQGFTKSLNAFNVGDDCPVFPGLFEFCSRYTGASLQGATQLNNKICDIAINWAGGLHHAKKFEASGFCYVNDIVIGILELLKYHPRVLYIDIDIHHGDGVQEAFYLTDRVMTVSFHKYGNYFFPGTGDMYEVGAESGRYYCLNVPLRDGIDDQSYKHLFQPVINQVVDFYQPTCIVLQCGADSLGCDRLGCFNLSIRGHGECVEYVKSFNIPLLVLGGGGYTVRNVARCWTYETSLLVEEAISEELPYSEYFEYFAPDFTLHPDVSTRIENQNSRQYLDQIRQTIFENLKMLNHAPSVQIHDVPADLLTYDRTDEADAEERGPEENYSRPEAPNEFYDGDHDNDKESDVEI
HDAC3, sequence (Q9Y618 395-489 partner, species assumed): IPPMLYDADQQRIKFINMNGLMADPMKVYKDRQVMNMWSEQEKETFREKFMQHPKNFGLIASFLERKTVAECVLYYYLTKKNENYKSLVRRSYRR
HDAC2, sequence (Q92769 whole entry, species assumed): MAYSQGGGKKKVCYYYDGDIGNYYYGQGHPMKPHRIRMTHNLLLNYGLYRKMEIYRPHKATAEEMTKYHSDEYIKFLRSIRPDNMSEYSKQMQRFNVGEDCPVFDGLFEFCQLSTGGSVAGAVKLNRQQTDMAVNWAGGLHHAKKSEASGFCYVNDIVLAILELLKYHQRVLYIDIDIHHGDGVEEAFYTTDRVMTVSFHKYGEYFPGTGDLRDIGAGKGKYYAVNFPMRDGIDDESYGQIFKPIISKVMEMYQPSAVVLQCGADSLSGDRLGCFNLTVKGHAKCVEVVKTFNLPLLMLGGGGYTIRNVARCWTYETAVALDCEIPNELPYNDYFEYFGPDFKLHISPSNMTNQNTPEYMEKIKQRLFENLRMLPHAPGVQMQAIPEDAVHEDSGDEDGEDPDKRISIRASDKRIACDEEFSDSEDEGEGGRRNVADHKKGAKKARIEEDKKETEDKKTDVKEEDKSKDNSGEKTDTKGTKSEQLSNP
HDAC1, sequence (Q13547 whole entry, species assumed): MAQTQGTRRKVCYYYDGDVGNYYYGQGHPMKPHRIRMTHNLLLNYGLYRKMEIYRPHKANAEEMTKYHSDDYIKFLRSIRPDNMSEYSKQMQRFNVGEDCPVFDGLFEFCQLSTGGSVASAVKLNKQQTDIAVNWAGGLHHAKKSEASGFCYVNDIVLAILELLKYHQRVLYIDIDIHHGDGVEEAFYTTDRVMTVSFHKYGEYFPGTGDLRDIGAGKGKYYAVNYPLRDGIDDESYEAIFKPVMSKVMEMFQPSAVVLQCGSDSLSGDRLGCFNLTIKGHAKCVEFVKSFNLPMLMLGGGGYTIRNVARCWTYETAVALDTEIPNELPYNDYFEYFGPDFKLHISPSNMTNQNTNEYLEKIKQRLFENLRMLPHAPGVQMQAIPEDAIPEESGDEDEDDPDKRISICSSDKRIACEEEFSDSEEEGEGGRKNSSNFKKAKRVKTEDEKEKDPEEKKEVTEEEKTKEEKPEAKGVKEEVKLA
Method for HDAC1: (§7) In some experiments, the following non-trypsin coupled in-vitro HDAC enzymatic endpoint assay was used to assay the compounds described herein. Below is a standardized protocol for running HDAC selectivity panel on Caliper LabChip EZ-Reader Instrument.
(§8) Substrate A was prepared as 2 mM in DMSO. Its final concentration in the assay for HDACs 1,2,3,6 is 2 μM.
(§9) LBH was used as quench inhibitor to stop the reaction at the end point.
(§10) The protocol was carried out as follows: • 1. Caliper LabChip and 1 μM Marker (peptide substrate in separation buffer) were prepared for instrument run. • 2. Warm up Caliper HAB buffer to room temperature • 3. […] Add 10 μl 3× solution acetylated substrate to initiate the reaction for 50 minutes. • 5. […] Mix plate • 7. Read plate on EZ Reader instrument. Separate substrate and product peaks by capillary electrophoresis and read fluorescence from both substrate and product. • 8. Run parameters were as follows:
Method for HDAC2: as §7, §8, §9, §10
Method for HDAC3: as §7, §8, §9, §10

As for `CC(=O)Nc1ccc(C(=O)Nc2ccc(F)cc2N)cc1` [Compound I-1], the “fold more cells positive for MHC class II (IA-IE)” value was “about 2 ×” in [1] (1 μM I-1), “about 6 ×” in series [1] (3 μM I-1), “about 4 ×” in series [6] (120 nM I-1) and “about 13 ×” in [6] (3 μM I-1). Further, the “cytotoxicity (percent of viable cells)” value in series [2] is listed as “generally not cytotoxic”. In addition, the negative logarithm of the IC50 (pIC50) against HDAC1 is 5.66; against HDAC2, 5.82; on HDAC3, 7.21. Further, the plasma exposure result in “plasma exposure (PK)” was “above K, and below NOAEL”. Moreover, the “increase in MHC Class II expression” value in series [3] is listed as 20-100%. Further, the tolerability entry in [4] (25 and 50 mg/kg, orally, BID) is “well tolerated”. The “tolerated exposures relative to tolerated dose of a clinical HDAC 1,2,3 inhibitor” value in [4] (FIG. 13) was “greater than 4 ×”. The “levels showing efficacy relative to NOAEL (no adverse effect level)” value in series [4] (rat NOAEL, FIG. 13) is reported as “below rat NOAEL”. In addition, the impact on viability result in series [5] is given as “minimal impact on viability”.

In the case of `Nc1cc(F)ccc1NC(=O)/C=C/c1cnn(C/C=C/c2ccccc2)c1` [RGFP966, reference compound], the “MHC class II protein levels (geometric mean MFI)” value in series [6] (various concentrations (FIGS. 14 and 15)) is “capable of increasing MHC class II protein levels”.

These data come from patent US12128018B2, “Combination of a selective histone deacetylase 3 (HDAC3) inhibitor and an immunotherapy agent for the treatment of cancer” (KDAc Therapeutics, Inc., priority 2018, dated 2024).
